In the assay the target is T1, T-type calcium channels (α1G) (Homo sapiens, UniProt O43497).
T1 construct: expressed in transfected cells
Nature of the assay: T-type calcium channel block, whole-cell voltage clamp in HEK293 cells. The assay is classed as cell-based. Particulars: α1G stably expressed in HEK293 cells, step to −30 mV from holding potential −110 mV. As to the method:
T-type calcium channels (α1G) were stably expressed in HEK293 cells and maintained at 37° C. in DMEM. Cells were released from dishes using trypsin and EGTA or Accutase and studied within 4 hours of isolation. Individual cells were placed on the stage of an inverted microscope and patched with pipettes pulled from aluminasilicate glass capillary tubes, which had resistances of 0.8-1.5 Mohm. Currents were recorded using an Axopatch 200 (Axon Instruments, Inc.) and pClamp data acquisition software (8.1). The pipette solution contained (in mM): KCl 130, EGTA 11, HEPES 10, MGATP 5, pH ═7.4. The bath solution contained (in mM): NaCl 140, CaCl2 1, HEPES 10, pH═7.4. Test compounds were diluted into bath solution to the desired concentration (100 nM-10 μM) from a stock solutions (3 or 10 mM in DMSO). Current measurements were made at 20-23° C. Cells were held at −110 mV in order to maximize occupancy in the closed state and depolarized for 100 ms to various potentials. Currents were capacity corrected using 16-64 subthreshold responses (voltage steps of 10 or 20 mV) and leak subtracted, based on linear interpolation between the current at the holding potential and 0 mV. Cells were moved from a control chamber to a chamber with test compound and the effect of the drug was assessed using a voltage clamp protocol that stepped to −30 mV for 100 ms from a holding potential of −110 mV once every 5 s. After each 10-13 minutes, the train protocol was interrupted and a full current voltage relationship obtained. In general for each compound, four cells were studied for a minimum of 13 minutes, two in drug at 500 nM and two at 1 μM. In some cases other concentrations were also studied. Data were analyzed using Matlab (Mathworks, Natick, Mass.). Drug efficacy was estimated using the relationship: Blocked Fraction=[Drug]/(IC50+[Drug])

T1 sequence (O43497 whole entry): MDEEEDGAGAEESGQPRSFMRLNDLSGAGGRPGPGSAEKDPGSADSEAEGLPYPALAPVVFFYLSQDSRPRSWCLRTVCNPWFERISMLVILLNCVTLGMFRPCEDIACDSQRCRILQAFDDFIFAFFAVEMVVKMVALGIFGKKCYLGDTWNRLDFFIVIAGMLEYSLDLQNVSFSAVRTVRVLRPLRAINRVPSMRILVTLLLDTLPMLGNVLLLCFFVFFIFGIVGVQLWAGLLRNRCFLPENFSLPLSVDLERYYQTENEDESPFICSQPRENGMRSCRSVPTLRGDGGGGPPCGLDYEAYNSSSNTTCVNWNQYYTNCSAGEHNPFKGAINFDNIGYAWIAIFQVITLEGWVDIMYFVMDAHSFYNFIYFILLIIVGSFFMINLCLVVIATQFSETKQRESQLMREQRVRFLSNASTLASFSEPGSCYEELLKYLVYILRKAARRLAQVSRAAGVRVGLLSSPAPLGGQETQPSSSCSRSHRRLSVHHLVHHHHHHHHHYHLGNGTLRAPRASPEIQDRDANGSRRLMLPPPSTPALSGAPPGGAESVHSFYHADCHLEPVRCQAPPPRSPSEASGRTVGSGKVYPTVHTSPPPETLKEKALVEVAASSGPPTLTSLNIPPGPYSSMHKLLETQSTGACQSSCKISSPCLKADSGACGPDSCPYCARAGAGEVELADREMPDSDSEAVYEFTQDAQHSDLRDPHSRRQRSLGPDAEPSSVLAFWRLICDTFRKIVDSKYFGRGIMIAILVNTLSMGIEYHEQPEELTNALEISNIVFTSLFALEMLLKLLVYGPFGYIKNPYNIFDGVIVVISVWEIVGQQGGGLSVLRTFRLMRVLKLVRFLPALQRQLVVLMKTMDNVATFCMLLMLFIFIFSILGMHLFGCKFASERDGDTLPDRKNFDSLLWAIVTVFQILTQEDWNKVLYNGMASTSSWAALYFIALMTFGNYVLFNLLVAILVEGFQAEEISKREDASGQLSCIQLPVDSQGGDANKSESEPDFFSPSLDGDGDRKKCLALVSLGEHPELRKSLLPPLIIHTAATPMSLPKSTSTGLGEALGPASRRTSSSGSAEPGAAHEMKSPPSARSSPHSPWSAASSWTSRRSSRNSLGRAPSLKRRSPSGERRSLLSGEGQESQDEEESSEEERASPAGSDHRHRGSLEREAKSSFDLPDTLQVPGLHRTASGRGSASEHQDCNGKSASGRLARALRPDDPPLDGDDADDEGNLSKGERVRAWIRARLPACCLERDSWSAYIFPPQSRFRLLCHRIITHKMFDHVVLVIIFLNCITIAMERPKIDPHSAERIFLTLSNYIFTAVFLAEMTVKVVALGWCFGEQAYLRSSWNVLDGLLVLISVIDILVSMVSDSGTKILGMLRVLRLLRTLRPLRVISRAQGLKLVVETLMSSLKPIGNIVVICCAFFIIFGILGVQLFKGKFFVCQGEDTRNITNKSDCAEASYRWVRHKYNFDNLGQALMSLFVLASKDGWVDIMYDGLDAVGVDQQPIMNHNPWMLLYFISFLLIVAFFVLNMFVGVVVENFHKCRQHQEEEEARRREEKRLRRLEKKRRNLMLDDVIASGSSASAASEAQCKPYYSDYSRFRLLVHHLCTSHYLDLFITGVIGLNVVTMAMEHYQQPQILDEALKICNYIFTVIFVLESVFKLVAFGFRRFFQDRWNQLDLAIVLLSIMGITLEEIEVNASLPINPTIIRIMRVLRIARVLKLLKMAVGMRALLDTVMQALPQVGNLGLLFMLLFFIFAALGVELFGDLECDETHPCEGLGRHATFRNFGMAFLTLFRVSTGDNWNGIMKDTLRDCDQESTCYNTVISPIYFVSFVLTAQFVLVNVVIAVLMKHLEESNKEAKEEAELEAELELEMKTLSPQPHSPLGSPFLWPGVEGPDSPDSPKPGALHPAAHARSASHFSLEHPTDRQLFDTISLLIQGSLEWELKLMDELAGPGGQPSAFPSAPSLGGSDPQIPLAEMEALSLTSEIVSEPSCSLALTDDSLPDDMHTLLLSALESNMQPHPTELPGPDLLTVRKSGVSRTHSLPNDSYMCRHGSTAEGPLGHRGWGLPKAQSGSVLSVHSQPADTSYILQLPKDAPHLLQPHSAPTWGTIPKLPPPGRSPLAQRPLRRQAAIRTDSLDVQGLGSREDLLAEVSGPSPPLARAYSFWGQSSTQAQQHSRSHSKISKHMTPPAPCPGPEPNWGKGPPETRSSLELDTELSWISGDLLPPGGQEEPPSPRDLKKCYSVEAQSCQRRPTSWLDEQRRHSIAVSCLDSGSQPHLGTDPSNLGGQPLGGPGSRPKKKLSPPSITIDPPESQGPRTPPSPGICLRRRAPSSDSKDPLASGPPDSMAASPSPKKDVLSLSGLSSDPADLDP

Consider `CCCCCCCCCCCCCCCc1cccc(OC(C)C)c1C1C(C(=O)OC)=C(C)NC(C)=C1C(=O)OC` [DHP-5, dimethyl 1,4-dihydro-4-(2′-isopropoxy-6′-pentadecylphenyl)-2,6-dimethyl-3,5-pyridine dicarboxylate], for which the “% of calcium channels blocked” value (1 μM of comp'd) stood at 80%. As to `CCCCCCCCCCCCCCCc1cccc(OCC)c1C1C(C(=O)OCC)=C(C)NC(C)=C1C(=O)OC(C)C` (stereo not shown) [DHP-12, ethyl isopropyl 1,4-dihydro-4-(2′-ethoxy-6′-pentadecylphenyl)-2,6-dimethyl-3,5-pyridine dicarboxylate], the “% of calcium channels blocked” value stood at 5% (500 nM of comp'd) and 77% (1 μM of comp'd). On the same counts, the results for `COC(=O)C1=C(C)NC(C)=C(C(=O)OC)C1c1ccccc1[N+](=O)[O-]` [Nifedipine] are 0% and 15%. In the case of `COCC(=O)O[C@]1(CCN(C)CCCc2nc3ccccc3[nH]2)CCc2cc(F)ccc2[C@@H]1C(C)C` [Mibefradil], the “% of calcium channels blocked” value runs as follows: (500 nM of comp'd) 75%; (1 μM of comp'd) 90%.

Source of the values: patent US7235570B2, “1,4-dihydropyridine and pyridine compounds as calcium channel blockers” (Vittal Mallya Scientific Research, priority 2002, dated 2007).
